Measurements: US10981858B2, “Dendrimer and formulations thereof” (Priostar Pty Ltd, priority 2015, dated 2021)
Entries after “also recorded” stand apart in the source; their conditions may differ.

Columns and labels:
Type in all cases: physicochemical
[1] = 2,4-D/dendrimer formulation stability study (crystallisation at 0° C.); conditions: for Crystallisation After 7 Days at 0° C. With Seeding: 2,4-D Amine 625 g/l seeded with 2,4-D Amine salt; for Crystallisation After 7 Days at 0° C.: without seeding
Description: 20 ml of 2,4-D Amine(2,4-D 625 g/l market sample, Rygel, Adama Australia) was transferred to 25 ml clear vials and dendrimer added (with or without 30% Dithethylene Glycol). Caps were tightened to ensure no moisture entered the vials. Formulations were placed in a freezer at 0° C. […] In a related experiment, formulations were prepared with seeding with 2,4-D Amine salt (Shanghai Biochemical Sci. Ltd., purity 98 in order to hasten rate of crystallisation. The results are provided in Table 2.

[2] = Solubilization of water insoluble surfactant Ethoxylated Lauryl alcohol-3 M in LA-9 solution; conditions: for Quantity LA-3 added to LA-9 solution: 50 g, until hazy
Description: 5% w/w aqueous solution of Ethoxylated Lauryl alcohol-9 mole (water soluble surfactant) was prepared in Deionized water (2.5 g in 47.5 ml). Dendrimer compounds 1 and 4 were diluted 70:30 w/w in Diethylene glycol. The 5% Ethoxylated Lauryl alcohol-9 M (LA-9) solution was combined with dendrimer DEG solution at 90:10, 80:20 and 70:30 w/w (total weight 50 g).
Ethoxylated lauryl alcohol-3 mole (water insoluble surfactant) was added dropwise, while stirring, to the 50 g LA-9 solution (with or without dendrimer), until it became hazy. The weight of Ethoxylated lauryl alcohol-3 M added was recorded.

[3] = Solubilization of Methylated seed oil (MSO) in aqueous LA-9 solution; conditions: for Quantity MSO added to 10% LA-9 solution: 50 g, until hazy
Description: 10% aqueous solution of Ethoxylated Lauryl alcohol-9 mole (water soluble surfactant) was prepared in Deionized water (5 g in 45 ml). Dendrimer compounds 1 and 4 were prepared 70:30 w/w in Diethylene glycol (DEG). The 10% Ethoxylated Lauryl alcohol-9 M (LA-9) solution was combined with dendrimer DEG solution at 80:20 and 60:40 w/w (total weight of 50 g).
Methylated seed oil (MSO) (STEPOSOL-ROE-W, canola oil methyl ester, Stepan) was added dropwise under stirring to the 10% LA-9 solution (with or without dendimers), until the solution became hazy. Weight of MSO added was recorded.

[4] = Cloud point studies; conditions: 1 gm. dendrimer solution (70:30 w/w dendrimer:Diethylene Glycol) in 99 gm. of 10% NaOH solution
Description: 1 gm. of dendrimer solution (70:30 w/w dendrimer [Compound 1 or Compound 4]:Diethylene Glycol) was dissolved in 99 gm. of 10% NaOH solution in Deionized water and heated until hazy. Temperature of the solution was measured using calibrated thermometer.

[5] = Water value of dendrimers with solvent (Solvesso 200); conditions: 50 g aqueous solution, 7% dendrimer and 3% DEG; until hazy
Description: 50 g Aqueous solution of Dendrimer were prepared containing 7% dendrimer and 3% Diethylene glycol (DEG) by weight. Solvesso 200 (C10-13 aromatic hydrocarbon solvent) was added dropwise under stirring until the solution became hazy. Weight of Solvesso added was recorded.

[6] = Dynamic viscosity of aqueous dendrimer solution (Brookfield); conditions: aqueous solution 7% dendrimer and 3% DEG, ambient temperature, spindle no. 63 at 50 rpm
Description: 50 g aqueous solution of dendrimer (7% dendrimer and 3% DEG) was prepared in deionized water in a beaker, and subjected to dynamic viscosity measurement using Brookfield viscometer at ambient temperature. Viscosity studies were conducted using spindle no. 63 at 50 rpm. It was observed that viscosity of Compound-1 solution was 1.8 cps and Compound-4 solution was 0.6 cps.

[7] = Tebuconazole 600 SC hard water testing: suspensibility, column thinning, sedimentation; conditions: 2 ml Tebuconazole 600 SC, dendrimer 0.7%, in 98 ml 342 ppm hard water, 30° C., 24 hours
Description: (§1) Formulations were prepared by mixing water, surfactant, dispersing agent, wetting agent and antifoam together then gradually adding active. High shear mix for 20-30 minutes to disperse formulation ingredients in water before adding the active and mixing until homogeneous. The mixture was milled on a Dyno bead mill (1 m/s) with 0.4-0.6 mm beads at max. 40° C. until particle size was <4 um. Dendrimer compound (in DEG) was added and stirred for 20 minutes. Thickener and antimicrobial was then added and stirred for 20 minutes. Formulations were deaerated by sonication.
98 ml of 342 ppm hard water (prepared as per CIPAC method MT18) was heated to 30° C. before adding 2 ml. of Tebuconazole 600 SC formulation. Temperature was maintained at 30° C. for 24 hours and formulation characteristics were studied for suspension stability, wetting, column thinning/separation and sedimentation.

[8] = Tebuconazole 600 SC wetting study in hard water; conditions: one drop Tebuconazole 600 SC, dendrimer 0.7%, in 342 ppm hard water at 30° C.
Description: as §1
Wetting studies were conducted by placing one drop of Tebuconazole 600 SC formulation in 342 ppm hard water at 30° C. and recording the time when all the formulation particles were wet and dispersed in water.

[9] = Tebuconazole 600 SC formulation viscosity (Table 8); conditions: dendrimer 0.7%
Description: as §1

[10] = Additional tebuconazole formulations: suspension stability and viscosity; conditions: additional tebuconazole formulation, 0.8% additive
Source text: Additional formulations were developed, and formulation characteristics were studied for suspension stability, and viscosity.

[11] = Imidacloprid 700SC formulation viscosity and stability; conditions: Imidacloprid 700 g/L formulation, dendrimer 20 g/L
Description: Imidacloprid formulations were prepared by using high shear mixing to disperse formulation ingredients in 75% of the required water before adding the active and mixing until homogeneous. The mixture was milled on a bead mill (4 m/s) at 30-35° C. for 1 complete pass. Thickener, glycerine and residual water were then added under high shear mixing. Formulations were tested for viscosity (using a Brookfield LV viscometer) low temperature stability (0 C for 7 days) and RT stability. Many other dendrimers containing formulations prepared either solidified on milling or pre-milling Compound 4 reduced viscosity and provided greater formulation stability.

[12] = 2,4-D Amine 625 g/l, dendrimer 2%
[13] = 2,4-D Amine 625 g/l, dendrimer 5%
[14] = 2,4-D Amine 625 g/l, dendrimer 10%

OCCN(CCO)CC(O)COCC(COCC(O)CN(CCO)CCO)(COCC(O)CN(CCO)CCO)COCC(COCC(O)CN(CCO)CCO)(COCC(O)CN(CCO)CCO)COCC(O)CN(CCO)CCO (centres unmarked) [Compound 4, 9,9′-(Oxybis(methylene))bis(9-((3-(bis(2-hydroxyethyl)amino)-2-hydroxypropoxy)methyl)-3,15-bis(2-hydroxyethyl)-7,11-dioxa-3,15-diazaheptadecane-1,5,13,17-tetraol)]
Crystallisation After 7 Days at 0° C. With Seeding ([1]; dendrimer 1.4%, Diethylene Glycol 0.6%): Crystallised
Crystallisation After 7 Days at 0° C. With Seeding ([1]; dendrimer 2%): Crystallised
Crystallisation After 7 Days at 0° C. With Seeding ([1]; dendrimer 3.5%, Diethylene Glycol 1.5%): Crystallised
Crystallisation After 7 Days at 0° C. With Seeding ([1]; dendrimer 5%): Crystallised
Crystallisation After 7 Days at 0° C. With Seeding ([1]; dendrimer 7%, Diethylene Glycol 3%): remained stable; also recorded: No, Clear
Crystallisation After 7 Days at 0° C. With Seeding ([1]; dendrimer 10%): remained stable; also recorded: No, Clear
Crystallisation at 0° C. without seeding ([1]; 2,4-D Amine 625 g/l, all levels of dendrimer tested): did not result in crystallisation
Crystallisation After 14 Days at 0° C. ([1]; 2,4-D Amine 625 g/l, dendrimer 1.4%, Diethylene Glycol 0.6%): Crystallised
Crystallisation After 14 Days at 0° C. [1, 12]: Crystallised
Crystallisation After 14 Days at 0° C. ([1]; 2,4-D Amine 625 g/l, dendrimer 3.5%, Diethylene Glycol 1.5%): No
Crystallisation After 14 Days at 0° C. [1, 13]: Crystallised
Crystallisation After 14 Days at 0° C. ([1]; 2,4-D Amine 625 g/l, dendrimer 7%, Diethylene Glycol 3%): No
Crystallisation After 14 Days at 0° C. [1, 14]: No
Crystallisation After 7 Days at 0° C. [1, 12]: No
Crystallisation After 7 Days at 0° C. [1, 13]: No
Crystallisation After 7 Days at 0° C. [1, 14]: No
Quantity LA-3 added to LA-9 solution ([2]; ratio 5% LA-9 solution:dendrimer/DEG solution 70:30 (w/w), 21% dendrimer (w/w)): 2.01 g
Quantity LA-3 added to LA-9 solution ([2]; ratio 5% LA-9 solution:dendrimer/DEG solution 80:20 (w/w), 14% dendrimer (w/w)): 2.86 g
Quantity LA-3 added to LA-9 solution ([2]; ratio 5% LA-9 solution:dendrimer/DEG solution 90:10 (w/w), 7% dendrimer (w/w)): 2.11 g
Increase in solubilisation of Ethoxylated lauryl alcohol-3 M ([2]; over LA-9 without dendrimer): 72%
Increase in solubilisation of Methylated seed oil in aqueous solution [3]: 110%
Quantity MSO added to 10% LA-9 solution ([3]; ratio LA-9 solution:dendrimer/DEG solution 60:40 (w/w), 28% dendrimer (w/w)): 0.81 g
Quantity MSO added to 10% LA-9 solution ([3]; ratio LA-9 solution:dendrimer/DEG solution 80:20 (w/w), 14% dendrimer (w/w)): 0.92 g
Cloud point (temperature at which solution turned hazy) [4]: greater than 80 °C
Quantity Solvesso 200 added [5]: 2.15 g
Dynamic viscosity [6]: 0.6 cps
Suspensibility: Sediment [7]: <0.5 mL⁻¹
Suspensibility: nature of sediment [7]: Compact
Suspensibility: Column Thinning ([7]; top thinning): No
Wetting [8]: 9.9 s
Viscosity 0 C. ([9]; 0 C.): 744
Viscosity 54 C. ([9]; 54 C.): 730
Viscosity RT ([9]; RT): 730 cP
Observation: sediment at 0 C. ([10]; 0 C.): No sediment at 0 C.,
Viscosity (cP) 0 C. ([10]; 0 C.): 514 cP
Observation: sediment at RT ([10]; RT): fluffy, low sediment
Viscosity (cP) RT ([10]; RT): 672 cP
Observation: sediment at 0 C. ([11]; 0 C for 7 days): No sediment at 0 C.,
Viscosity (cP) 0 C. ([11]; 0 C., Brookfield LV viscometer): 552 cP
Observation: sediment at RT ([11]; RT): fluffy, low sediment at RT
Viscosity (cP) RT ([11]; RT, Brookfield LV viscometer): 574 cP
